Several values for one entry are separate records, joined by “and”; a condition that tells them apart may be missing. Identical values can stand only once. Activity calls are given as the source filed them.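 How the source made its calls: active means compounds giving half or more protection of infected cells from virus-caused growth loss, again on retest; inactive means the rest.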
Tested on: CEM cells HIV-1 protection, formazan growth assay
Assay: NCI AIDS Antiviral Assay
Details: for IC50: measured here: growth of uninfected CEM cells
In short: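 Screen of anti-HIV-1 activity in human CEM cells using a formazan-based growth measurement at five drug concentrations. Hits with 50% or greater protection were repeated, and confirmation required reproducible complete protection.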

CCOC(=O)/C(C#N)=C\c1ccc(N(CCC(=O)O)CCC(=O)O)c(I)c1
EC50: > 501 µM
IC50: > 501 µM

OC1(c2ccccc2)c2ccccc2Oc2ccccc21
EC50: > 200 µM
IC50: 17.4 µM

NC(=O)CC1C(CO)OC(n2ccc(=O)[nH]c2=O)C1O (stereo unspecified)
EC50: > 200 µM
IC50: > 200 µM

C#CCOCn1cnc2ncnc(Cl)c21
EC50: > 1120 µM
IC50: > 200 µM

COc1ccc2nc3cc(Cl)ccc3c(Nc3ccc(C(=O)O)c(O)c3)c2c1
EC50: > 60.3 µM
IC50: > 60.3 µM

CCOc1ccc(O)cc1[P+](c1ccccc1)(c1ccccc1)c1ccccc1
outcome: inactive

O/N=C1\C(=C\c2ccc3c(c2)OCCO3)CCCC1C(NO)c1ccc2c(c1)OCCO2 (stereo unspecified)
EC50: > 16.6 µM
IC50: > 16.6 µM

Cc1ccc2c(c1)C1(SCCC(=O)N1c1ccc(Cl)cc1)C(=O)N2 (stereo unspecified)
EC50: > 191 µM
IC50: 91.2 µM

CCOC(=O)C(C(=O)OCC)C(C(=O)OCC)(C(=O)OCC)C(C(=O)OCC)C(=O)OCC
outcome: inactive

CC1=Nn2c(nnc2-c2cccc(N)c2)NC(C)(C)C1
EC50: > 468 µM
IC50: > 468 µM

O=C(NC1=C(Cl)C(=O)c2ccccc2C1=O)C(=O)C(C(=O)c1ccc2ccccc2c1)C1OC(=O)c2ccccc21 (stereo unspecified)
EC50: > 45.7 µM
IC50: 11.5 µM

O=c1[nH]c2cc(Cl)ccc2nc1/C(=N\Nc1ccccc1)C(O)c1ccc2c(c1)OCO2 (stereo unspecified)
EC50: > 209 µM
IC50: > 209 µM

CCOC(=O)/C(O)=C(\C=N\C(=S)Nc1ccc(Cl)c(Cl)c1)C(=O)OCC
EC50: > 200 µM
IC50: > 200 µM

C[C@@H]1C[C@H](O)[C@]2(O)O[C@@H]3C[C@@]4(C=O)[C@@H](CC=C5[C@@H]4CC[C@]4(C)[C@@H](C6=CC(=O)OC6)CC[C@]54O)C[C@H]3O[C@@H]2O1
EC50: > 0.1 µM
IC50: 0.0138 µM

COC(=O)c1cc(C(=CCC2OCCO2)c2cc(Cl)c(OC)c(C(=O)OC)c2)cc(Cl)c1OC
EC50: > 52.5 µM
IC50: 38.9 µM

Cc1cc(NS(=O)(=O)c2ccc(Nc3c4ccccc4nc4c(C(N)=O)cccc34)cc2)no1
EC50: > 200 µM
IC50: 10.7 µM

C=C1CC[C@@H](Br)C(C)(C)[C@]12CCC(C)(O)C(Cl)C2 (stereo partly specified)
EC50: > 77.6 µM
IC50: > 77.6 µM

CN1CCCN2CCN(C)CCCN(CC1)CC2
EC50: > 977 µM
IC50: > 977 µM

CC12CCC(C1)C(O)(c1ccccc1)C2(O)c1ccccc1 (stereo unspecified)
EC50: > 60.3 µM
IC50: 44.7 µM

COc1ccccc1-n1nnc2c(N)nc(N)nc21
EC50: > 200 µM
IC50: > 200 µM

CS(=O)(=O)c1nc(N)nc2nc[nH]c12
EC50: > 200 µM
IC50: > 200 µM

CCOC1CSc2ccccc2C(c2ccccc2)=N1 (stereo unspecified)
EC50: 195 µM
IC50: > 200 µM

O=C(C=Nc1ccccc1C(=O)[O-])c1ccco1.O=C(C=Nc1ccccc1C(=O)[O-])c1ccco1.[Ni+2]
EC50: > 1.91 µM
IC50: > 1.91 µM

CC1=CC(C)(C)[C@H]2O[C@@]3(O)C[C@]4(C)[C@H]5C[C@@](C(C)C)(O[C@H]4c4ccoc4)O[C@H]4[C@]5(C3)O[C@@]1(O)[C@]24O
EC50: > 100 µM
IC50: > 100 µM

Cc1cc2c(c(S(=O)(=O)c3ccc(Cl)cc3[N+](=O)[O-])c1)NCCC2
EC50: > 75.9 µM
IC50: 27.5 µM

CC1OC(OC2C(CO)OC(O[C@H]3CC[C@@]4(C)C(=CC[C@H]5[C@@H]6C[C@@H]7O[C@](O)(CC[C@H](CO)COC8OC(CO)C(O)C(O)C8O)[C@@H](C)[C@@H]7[C@@]6(C)CC[C@@H]54)C3)C(OC3OC(C)C(O)C(O)C3O)C2O)C(O)C(O)C1O (stereo partly specified)
EC50: > 200 µM
IC50: > 200 µM

Cc1nc(-c2nc(C)c(C(=O)NN(C)C)s2)sc1C(=O)NN(C)C
EC50: > 70.8 µM
IC50: > 70.8 µM

CNC(=S)OCCC(C)CCCC(C)C (stereo unspecified)
outcome: inactive

O=C(O)c1cccc(Sc2ccccc2)c1
EC50: > 407 µM
IC50: 251 µM

CC(=O)OCC1OC(N2C(c3ccccc3)=CC(c3cccs3)C(C#N)=C2S)C(OC(C)=O)C(OC(C)=O)C1OC(C)=O (stereo unspecified)
EC50: 81.3 µM
IC50: > 200 µM

Cc1noc(NS(=O)(=O)c2ccc(NC(=S)N/C=C(\C#N)C(N)=O)cc2)c1C
outcome: inactive

CCCCNC(=O)/N=C/c1c(O)c2ccccc2oc1=O
EC50: > 91.2 µM
IC50: 58.9 µM

C[C@@H]1OCN(C(=O)c2ccccc2SSc2ccccc2C(=O)N2CO[C@H](C)[C@H]2C(=O)O)[C@H]1C(=O)O
EC50: > 200 µM
IC50: > 200 µM

COC(=O)C(C(=O)C(=O)Nc1ccc([N+](=O)[O-])cc1)c1nc2ccc([N+](=O)[O-])cc2[nH]c1=O (stereo unspecified)
EC50: > 57.5 µM
IC50: > 57.5 µM

N#CC1C(=O)SC2c3ccccc3C(=O)c3ccccc3C12 (stereo unspecified)
EC50: > 200 µM
IC50: 132 µM

CN1Cc2cc3c(cc2-c2ccccc21)OCO3
EC50: 269 µM
IC50: 282 µM

COC(=O)NNC(c1ccc(Cl)cc1)c1ccc(Cl)cc1
EC50: > 200 µM
IC50: 30.9 µM

CCCCCCCCCCCCCCCCOP(=O)(O)OCC(N)C(=O)O (stereo unspecified)
EC50: > 200 µM
IC50: 18.6 µM

CN1C(=O)C[N+]([O-])=C(c2ccccc2)c2cc(Cl)ccc21
EC50: > 120 µM
IC50: > 120 µM

CCOC(=O)C(=O)/C(=C/n1c(=S)[nH]c2ccc([N+](=O)[O-])cc21)C(=O)OCC
EC50: > 200 µM
IC50: 77.6 µM

CCC(C)[P+](c1ccccc1)(c1ccccc1)c1ccccc1 (stereo unspecified)
EC50: > 200 µM
IC50: 2.63 µM and 2.51 µM

O=C(Cl)c1ccc([As](=O)(O)O)cc1
EC50: > 200 µM
IC50: > 200 µM

COc1ccc(N2C(=O)C3c4[nH]c5ccc(OCc6ccccc6)cc5c4C4CCC(C(C)C)CC4C3C2=O)cc1 (stereo unspecified)
EC50: > 100 µM
IC50: > 100 µM

c1ccc(CCn2cncn2)cc1
EC50: > 1200 µM
IC50: > 1200 µM

CCC1=[N+]([O-])C(C)(C)NC1(C)C
EC50: > 200 µM
IC50: > 200 µM

O=[N+]([O-])c1ccc(NN=C2CN3CCN(C2)c2ccccc23)c([N+](=O)[O-])c1
EC50: > 200 µM
IC50: 162 µM

C/C=C/C=C/c1cc2cc3c(c(O)c2c(=O)[nH]1)C1(CC3)C(O)=c2c(=O)c3c(=O)cc(OC)c(=O)c=3c(=O)c2=C1O (stereo unspecified)
EC50: > 200 µM
IC50: 5.89 µM

c1ccc(CN2COc3ccc4c5c(ccc4c3C2)OCN(Cc2ccccc2)C5)cc1
EC50: > 2.45 µM
IC50: > 2.45 µM

CCOc1ccc(N2C(=O)C3c4[nH]c5ccccc5c4C4CCC(C(C)(C)C)CC4C3C2=O)cc1 (stereo unspecified)
EC50: > 2.19 µM
IC50: > 2.19 µM

CC1=C(c2cc(C(=O)Nc3nccs3)nc(NC#N)n2)Sc2ccccc2N1
EC50: > 45.7 µM
IC50: > 45.7 µM

COC(=O)C(=NNc1ccccc1[N+](=O)[O-])C(=O)OC
outcome: inactive

CC1=NC(=Cc2ccc([N+](=O)[O-])cc2)C(=O)N1n1c(-c2ccccc2)nc2ccccc2c1=O
EC50: > 200 µM
IC50: 34.7 µM

CCOP(=O)(O)C(Nc1ccc(N=Nc2ccccc2)cc1)c1cccc(C(Nc2ccc(N=Nc3ccccc3)cc2)P(=O)(O)OCC)c1 (stereo unspecified)
EC50: > 200 µM
IC50: 35.5 µM

CCCCCCCCCCCCCCCCCCOCC(CCP(=O)(CP(=O)(O)O)Oc1ccccc1)OCCCCCCCCCCCCCCCCCC (stereo unspecified)
outcome: inactive

CCCCN(CCCC)CCCOC(=O)c1ccc2oc3ccc(C(=O)OCCCN(CCCC)CCCC)cc3c2c1
EC50: > 38.9 µM
IC50: 10.5 µM

CCOC(=O)c1ccc(CS(=O)(=O)c2ccc(Cl)cc2)cc1
EC50: > 55 µM
IC50: > 55 µM

C=C1CC[N+]2(C)CCCC12 (stereo unspecified)
EC50: > 1150 µM
IC50: > 1150 µM

O=C(O)CCCCCCCC(O)C(O)CCCCCCCC(=O)O (stereo unspecified)
EC50: > 195 µM
IC50: > 195 µM

O=C1CC2(CCC(O)(c3ccco3)C(C(=O)c3ccco3)C2)C(=O)c2ccccc2N1 (stereo unspecified)
EC50: > 200 µM
IC50: > 200 µM

Cc1ccc2c(c1)C1(SC(C)C(=O)N1c1ccc(Br)cc1)C(=O)N2 (stereo unspecified)
EC50: > 200 µM
IC50: 6.31 µM

CCOP(=O)(C/C=C\Cn1cnc(C(N)=O)c1N)OCC
EC50: > 200 µM
IC50: > 200 µM

O=C1NC2C3CC(OCc4ccccc4)(OCc4ccccc4)C2OC3O1 (stereo unspecified)
EC50: > 97.7 µM
IC50: > 97.7 µM

CC[N+]1(CC)CC[N+]2(CCCC(C)CC2)CC1 (stereo unspecified)
outcome: inactive

CC1(C)OP(=O)(O)C=C1Sc1ccc([N+](=O)[O-])cc1[N+](=O)[O-]
EC50: > 200 µM
IC50: > 200 µM

C[C@]12C(=O)OC[C@H](c3ccccc3)N1C(=O)N(Cc1ccccc1)[C@@H]2CO
EC50: > 200 µM
IC50: > 200 µM

CN(/N=C/C=N/N(C)C1=NCCCN1)C1=NCCCN1
EC50: 110 µM
IC50: > 200 µM

N#CCCN(CCC#N)c1ccc(/C=C2\N=C(c3cc([N+](=O)[O-])ccc3Cl)N(NC(=O)CC(=O)Nc3ccccc3Cl)C2=O)cc1
EC50: > 11 µM
IC50: > 11 µM

CCOC(=O)N[C@@H]1C(CC(=O)OC)O[C@H]2OC(C)(C)O[C@H]21 (stereo partly specified)
EC50: > 832 µM
IC50: > 832 µM

CC(=Nc1ccc(Cl)c(Cl)c1)c1ccncc1
outcome: inactive

COc1c(OC)c(OC)c2c(=O)cc(-c3ccc(OC(C)=O)cc3)oc2c1OC
EC50: > 200 µM
IC50: 19.5 µM

O=C1CCSSCCC(=O)NCCN1
EC50: > 22.4 µM
IC50: > 22.4 µM

C1CSCCSCCSCCSC1
EC50: > 38.9 µM
IC50: > 38.9 µM

C1CCC2(CC1)O[C@@H]1[C@@H](O2)[C@@H](O[C@H]2O[C@@H]3COC4(CCCCC4)O[C@H]3[C@@H]3OC4(CCCCC4)O[C@@H]23)O[C@@H]2COC3(CCCCC3)O[C@@H]12
EC50: > 100 µM
IC50: > 100 µM

Cc1ccc(N=C2C(=Nc3ccc(C)cc3)N(c3ccc(C)cc3)C(=S)N2C(=O)c2ccccc2)cc1
EC50: > 200 µM
IC50: > 200 µM

COC(=O)N(CO)CO
EC50: > 200 µM
IC50: > 200 µM

CC1(C)CNC[C@@]2(C)OCCO[C@@]3(C)CNCC(C)(C)[N-]C(=O)[C@@](C)(CNCC(C)(C)[N-]C3=O)OCCO[C@](C)(CNCC(C)(C)[N-]C2=O)C(=O)[N-]1.[Cu+2].[Cu+2]
EC50: > 200 µM
IC50: > 200 µM

CCOC(=O)C1=CCOc2cc(N(C)C)ccc21
EC50: > 200 µM
IC50: 105 µM

O=C1c2cccnc2S(=O)N1Cc1ccccc1 (stereo unspecified)
EC50: 105 µM
IC50: > 200 µM

CCN(CC)C(=S)SS(=O)(=O)c1ccc(N)cc1
EC50: > 200 µM
IC50: 56.2 µM

N=C(N)N
EC50: > 1000 µM
IC50: > 1000 µM

CCOC(=O)c1nnsc1NC(=O)Nc1ccc(Cc2ccc(NC(=O)Nc3snnc3C(=O)OCC)cc2)cc1
EC50: > 200 µM
IC50: > 200 µM

CC(=O)/C(=C/c1ccc(N(C)C)cc1)C(=O)c1ccccc1
EC50: > 6.76 µM
IC50: > 6.76 µM

Source: PubChem BioAssay AID179 (DTP/NCI, 2004)
